Results as given in US9260454B2, “Isothiazolopyridine-2-carboxamides and their use as pharmaceuticals” (Sanofi, priority 2011, dated 2016).

Tests used:
recombinant human TGM2 = recombinant human TGM2 (Homo sapiens (Human), UniProt P21980); experiment: Assay for quantification of TGM2 transglutaminase inhibitory activity (fluorescence, H-Abz-APE(CAD-DNP)QEA-OH substrate); assay type: biochemical; settings: recombinant human TGM2 25 μg/ml; substrate 50 μM, glycine methyl ester 5 mM; 15 min preincubation at room temperature; pH 7.5; read-out: IC50 values for inhibition of TGM2
Sequence of recombinant human TGM2 (P21980 whole entry): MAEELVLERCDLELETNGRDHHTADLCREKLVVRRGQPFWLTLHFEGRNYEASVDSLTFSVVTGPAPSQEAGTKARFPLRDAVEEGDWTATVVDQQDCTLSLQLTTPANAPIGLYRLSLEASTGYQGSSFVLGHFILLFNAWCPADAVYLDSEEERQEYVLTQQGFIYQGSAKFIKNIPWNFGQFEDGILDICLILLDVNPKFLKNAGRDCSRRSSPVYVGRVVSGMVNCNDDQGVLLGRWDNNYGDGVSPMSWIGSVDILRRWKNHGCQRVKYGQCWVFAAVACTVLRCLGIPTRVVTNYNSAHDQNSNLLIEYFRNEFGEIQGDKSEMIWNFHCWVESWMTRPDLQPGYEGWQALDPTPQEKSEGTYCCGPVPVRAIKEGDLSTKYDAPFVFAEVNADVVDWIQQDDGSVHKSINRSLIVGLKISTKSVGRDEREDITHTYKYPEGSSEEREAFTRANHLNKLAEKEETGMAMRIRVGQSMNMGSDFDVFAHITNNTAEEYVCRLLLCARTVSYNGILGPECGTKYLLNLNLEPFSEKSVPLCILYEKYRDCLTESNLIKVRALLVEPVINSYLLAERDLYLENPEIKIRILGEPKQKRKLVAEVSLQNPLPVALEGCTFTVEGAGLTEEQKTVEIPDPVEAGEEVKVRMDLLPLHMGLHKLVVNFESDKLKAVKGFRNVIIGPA
Procedure: a) Assay Method for the Quantification of TGM2 Transglutaminase Inhibitory Activity
The activity of the compounds for inhibition of TGM2 was determined with recombinant human TGM2 (Zedira GmbH, Darmstadt, Germany, Product Nr. T002) and the peptidic compound H-Abz-APE(CAD-DNP)QEA-OH as substrate (Zedira GmbH, Darmstadt, Germany, Product Nr. A102; CAD-DNP is N^ω-2,4-dinitrophenyl-cadaverine, i.e. the carboxylic acid group in the side chain of the respective glutamyl moiety is amidated with the primary amino group of N-(2,4-dinitrophenyl)pentane-1,5-diamine; cf. also K. Oertel et al., Anal. Biochem. 2007, 367: 152-158). For this purpose, 2 μl of a solution of different concentrations of the test compound in dimethyl sulfoxide was added to 28 μl of buffer (50 mM TRIS, 100 mM NaCl, 10 mM CaCl2, pH 7.5) and 10 μl of a TGM2 solution to give a TMG2 test concentration of 25 μg/ml, and the mixture incubated for 15 minutes at room temperature in a 96 half-well microtiter plate. The enzyme reaction was started by the addition of 10 μl of substrate solution containing H-Abz-APE(CAD-DNP)QEA-OH and glycine methyl ester hydrochloride in buffer to give test concentrations of H-Abz-APE(CAD-DNP)QEA-OH of 50 μM and of glycine methyl ester hydrochloride of 5 mM. The time course of the reaction was monitored with excitation at 318 nm and measurement at emission wavelength 418 nm in a microtiter plate reader (SpectraMax M5, Molecular Devices) over 15 minutes. Rates were calculated from the linear part of the curve (generally between 5 and 10 minutes). IC50 values were calculated from the means (duplicates) of a dilution series of the compound, using the software Softmax Pro (Version 4.8, Molecular Devices).

[1] = system: micromass culture of mesenchymal cells; settings: 30 μM in micromass culture; cited from earlier work
chondrocytes = settings: cited from earlier work

| IC50 (recombinant human TGM2) [nM] | SMILES | other results |
| --- | --- | --- |
| 18000 | O=C(O)CN1CCN(C(=O)n2sc3ncccc3c2=O)CC1 [Example 8] |  |
| 12000 | O=C(O)CN1CCN(C(=O)n2sc3c(ccc[n+]3[O-])c2=O)CC1 [Example 10] |  |
| 14 | O=C(CCOc1ccccc1)N1CCN(C(=O)n2sc3c(ccc[n+]3[O-])c2=O)CC1 [Example 21] |  |
| 61 | CCS(=O)(=O)N1CCN(C(=O)n2sc3c(ccc[n+]3[O-])c2=O)CC1 [Example 38] |  |
| 62 | CC(C)C(=O)N1CCN(C(=O)n2sc3c(ccc[n+]3[O-])c2=O)CC1 [Example 29] |  |
| 270 | O=C(N1CCOCC1)n1sc2c(ccc[n+]2[O-])c1=O [Example 5] |  |
| 1000 | O=C1CC[C@@H](C(=O)N2CCN(C(=O)n3sc4c(ccc[n+]4[O-])c3=O)CC2)N1 [Example 59] |  |
| 72 | O=C(c1ccccn1)N1CCN(C(=O)n2sc3c(ccc[n+]3[O-])c2=O)CC1 [Example 89] |  |
|  | O=C(NC(Cc1c[nH]c2ccc(F)cc12)C(=O)NCC1CC(Br)=NO1)OCc1cnc2ccccc2c1 (centres unmarked) [ERW1069] | Xylt2 expression [1]: increase; proteoglycan deposition [1]: increase |
| 2100 | O=C(N1CCC(O)CC1)n1sc2c(ccc[n+]2[O-])c1=O [Example 86] |  |
| 340 | CC(=O)N1CCN(C(=O)n2sc3ncccc3c2=O)CC1 [Example 26] |  |
| 2300 | O=C([C@@H]1CCCN1)N1CCN(C(=O)n2sc3c(ccc[n+]3[O-])c2=O)CC1 [Example 50] |  |
| 2900 | C[C@@H]1CN(C(=O)n2sc3c(ccc[n+]3[O-])c2=O)C[C@H](C)O1 [Example 81] |  |
| 120 | CCCC(=O)C1CCN(C(=O)n2sc3c(ccc[n+]3[O-])c2=O)CC1 [Example 78] |  |
| 110 | O=C(CCOc1ccccc1)N1CCN(C(=O)n2sc3ncccc3c2=O)CC1 [Example 20] |  |
| 340 | CN1CCN(C2CCN(C(=O)n3sc4c(ccc[n+]4[O-])c3=O)CC2)CC1 [Example 40] |  |
| 140 | O=C(N1CCN(c2ccc(N3CCCC3)nn2)CC1)n1sc2c(ccc[n+]2[O-])c1=O [Example 46] |  |

| IC50 (recombinant human TGM2) [nM] | SMILES | other results |
| --- | --- | --- |
| 62 | CC(=O)N1CCN(C(=O)n2sc3c(ccc[n+]3[O-])c2=O)CC1 [Example 70] |  |
|  | NCCSSCCN [cystamine] | active TGFβ1 in chondrocytes (chondrocytes): decrease |
| 420 | O=C(C1CC1)N1CCN(C(=O)n2sc3ncccc3c2=O)CC1 [Example 27] |  |
| 2000 | CCNCC(=O)N1CCN(C(=O)n2sc3c(ccc[n+]3[O-])c2=O)CC1 [Example 55] |  |
| 120 | NCC(=O)N1CCN(C(=O)n2sc3c(ccc[n+]3[O-])c2=O)CC1 [Example 44] |  |
| 240 | CNC1CCN(C(=O)n2sc3c(ccc[n+]3[O-])c2=O)CC1 [Example 42] |  |
| 430 | CCS(=O)(=O)N1CCN(C(=O)n2sc3ncccc3c2=O)CC1 [Example 36] |  |
| 26000 | CC(NC(=O)n1sc2c(ccc[n+]2[O-])c1=O)c1ccc2c(c1)OCCO2 (centres unmarked) [Example 16] |  |
| 54 | COc1ccc(C(=O)N2CCN(C(=O)n3sc4c(ccc[n+]4[O-])c3=O)CC2)cc1OC [Example 69] |  |
| 65 | COc1ccc(C(=O)N2CCN(C(=O)n3sc4ncccc4c3=O)CC2)cc1OC [Example 68] |  |
| 130 | O=C(c1ccncc1)N1CCN(C(=O)n2sc3c(ccc[n+]3[O-])c2=O)CC1 [Example 74] |  |
| 45 | O=C(C1CC1)N1CCN(C(=O)n2sc3c(ccc[n+]3[O-])c2=O)CC1 [Example 28] |  |
| 1700 | NC(=O)N1CCN(C(=O)n2sc3c(ccc[n+]3[O-])c2=O)CC1 [Example 84] |  |
| 150 | O=C1CN(C(=O)n2sc3c(ccc[n+]3[O-])c2=O)CCN1 [Example 80] |  |
| 3100 | O=C1NCCN1C1CCN(C(=O)n2sc3c(ccc[n+]3[O-])c2=O)CC1 [Example 62] |  |
| 1200 | O=C(N1CCNCC1)n1sc2c(ccc[n+]2[O-])c1=O [Example 72] |  |
| 750 | COCCC(=O)N1CCN(C(=O)n2sc3c(ccc[n+]3[O-])c2=O)CC1 [Example 83] |  |

| SMILES | IC50 (recombinant human TGM2) [nM] | other results |
| --- | --- | --- |
| COc1ccc(CNC(=O)n2sc3c(ccc[n+]3[O-])c2=O)cc1OC [Example 24] | 370 |  |
| N#Cc1ccc(N2CCN(C(=O)n3sc4ncccc4c3=O)CC2)cc1 [Example 6] | 1100 |  |
| O=C(N1CCC2(CCCN2)CC1)n1sc2c(ccc[n+]2[O-])c1=O [Example 45] | 4300 |  |
